ChEMBL document CHEMBL1157152, “Kinetic parameters and recognition of thymidine analogues with varying functional groups by thymidine phosphorylase” (Bioorg Med Chem, 2008)

Legend:
[1] = biological target: Thymidine phosphorylase (Escherichia coli K-12) (UniProt P07650); test: Activity of Escherichia coli thymidine phosphorylase assessed as drug phosphorylation after 2 hrs; set-up: concentration or dose not given beside the values
[2] = biological target: Thymidine phosphorylase (Escherichia coli K-12) (UniProt P07650); test: Activity of Escherichia coli thymidine phosphorylase assessed as drug phosphorylation after 1 hr; set-up: concentration or dose not given beside the values
[3] = biological target: Thymidine phosphorylase (Escherichia coli K-12) (UniProt P07650); test: Activity of 10 U/mL Escherichia coli thymidine phosphorylase assessed as drug phosphorylation after 24 hrs
[4] = biological target: Thymidine phosphorylase (Escherichia coli K-12) (UniProt P07650); test: Activity of 10 U/mL Escherichia coli thymidine phosphorylase assessed as drug phosphorylation after 1 week
[5] = biological target: Thymidine phosphorylase (Escherichia coli K-12) (UniProt P07650); test: Activity of Escherichia coli thymidine phosphorylase assessed as drug phosphorylation after 24 hrs
[6] = biological target: Thymidine phosphorylase (Escherichia coli K-12) (UniProt P07650); test: Activity of 1 U/mL Escherichia coli thymidine phosphorylase assessed as drug phosphorylation after 1 hr

Thymidine phosphorylase (Escherichia coli K-12), sequence (P07650 whole entry, looked up): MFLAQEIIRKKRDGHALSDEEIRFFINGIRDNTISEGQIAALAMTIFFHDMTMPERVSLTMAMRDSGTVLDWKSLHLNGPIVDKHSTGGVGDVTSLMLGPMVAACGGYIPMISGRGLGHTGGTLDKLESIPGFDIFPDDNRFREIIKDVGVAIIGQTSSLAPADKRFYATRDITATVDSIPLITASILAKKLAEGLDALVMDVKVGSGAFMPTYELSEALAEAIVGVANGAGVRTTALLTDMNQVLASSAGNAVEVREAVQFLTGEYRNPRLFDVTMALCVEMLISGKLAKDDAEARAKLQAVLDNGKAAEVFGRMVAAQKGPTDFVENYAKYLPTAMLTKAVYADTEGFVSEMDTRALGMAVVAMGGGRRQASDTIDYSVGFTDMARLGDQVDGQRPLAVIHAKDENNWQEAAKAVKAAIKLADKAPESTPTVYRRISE

| SMILES | Activity [1] [%] | Activity [2] [%] | Activity [3] [%] | further results |
| --- | --- | --- | --- | --- |
| Cc1cn([C@H]2C[C@H](O)[C@@H](C)O2)c(=O)[nH]c1=O | 91 | 68 | – | – |
| Cc1nn([C@H]2C[C@H](O)[C@@H](CO)O2)c(=O)[nH]c1=O | – | – | 5.4 | Activity [4]: 7.9% |
| Cc1cnc(=O)n([C@H]2C[C@H](O)[C@@H](CO)O2)c1 | – | – | 0 | Activity [4]: 0% |
| Cc1cn([C@H]2C[C@H](N)[C@@H](CO)O2)c(=O)[nH]c1=O | 1.5 | 0.76 | – | – |
| O=c1ccn([C@@H]2O[C@H](CO)[C@@H](O)[C@H]2O)c(=O)[nH]1 | 81 | 56 | – | – |
| Cc1cn(COC(CO)CO)c(=O)[nH]c1=O | – | – | 0 | – |
| Cc1cn([C@@H]2C[C@H](O)[C@@H](CO)S2)c(=O)[nH]c1=O | – | – | 0 | – |
| Nc1ccn([C@H]2C[C@H](O)[C@@H](CO)O2)c(=O)n1 | – | – | 0 | Activity [4]: 0% |
| Cc1cn([C@H]2CC[C@@H](CO)O2)c(=O)[nH]c1=O | 6.1 | 3.2 | – | – |
| Cc1cn([C@H]2C[C@H](O)[C@@H](CO)O2)c(=O)[nH]c1=O | 86 | 86 | – | Activity [5]: 82%; Activity [6]: 86% |
| Cc1cn([C@H]2C[C@H](S)[C@@H](CO)O2)c(=O)[nH]c1=O | 0 | 0 | – | – |
| O=c1ccn([C@H]2C[C@H](O)[C@@H](CO)O2)c(=O)[nH]1 | 88 | – | – | Activity [5]: 83% |
| Cc1cn([C@@H]2C[C@H](O)[C@@H](CO)O2)c(=O)[nH]c1=O | – | – | 0 | Activity [4]: 0% |
| Cc1cn([C@H]2C[C@H](O)[C@@H](CN)O2)c(=O)[nH]c1=O | 36 | 11 | – | – |
| Cc1cn([C@H]2C[C@H](O)[C@@H](CO)S2)c(=O)[nH]c1=O | – | – | 3.8 | – |
| Cc1cn([C@H]2CC(O)[C@@H](CO)O2)c(=O)[nH]c1=O (single isomer, unassigned) | 0 | 0 | – | – |
| Cc1cn([C@H]2C[C@H](O)C[C@@H](CO)O2)c(=O)[nH]c1=O | – | – | 0 | – |
| Cc1cn([C@H]2C[C@H](O)[C@@H](CCl)O2)c(=O)[nH]c1=O | 70 | 24 | – | – |
| Cc1cn([C@H]2C[C@H](O)[C@@H](CS)O2)c(=O)[nH]c1=O | 90 | 39 | – | – |
| Cc1cn([C@H]2C[C@H](O)[C@@H](CI)O2)c(=O)[nH]c1=O | 0 | 0 | – | – |
| Cc1cn([C@H]2C[C@H](O)[C@@H](CN=[N+]=[N-])O2)c(=O)[nH]c1=O | 0 | 0 | – | – |
